Data from the METLIN SMRT retention time set (Domingo-Almenara et al. 2019).
One block for each molecule: values may come before it.

Test: gradient 5% acetonitrile 3 min, to 50% in 2 min, to 85% in 15 min, held 3 min, 100 µL/min
Conditions: column: Zorbax Extend-C18 2.1 x 50 mm; eluents: water / acetonitrile, 0.1% formic acid
Method in brief: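 In both positive and negative ionization mode, a quadrupole time-of-flight mass spectrometer coupled to HPLC analyzed pure standards run in mixtures of ~100 molecules. The Zorbax Extend-C18 column (2.1 × 50 mm, 1.8 μm) was operated at 100 μL/min with water and acetonitrile, each containing 0.1% formic acid. The dead volume was 40 μL and the dwell volume 900 μL. Retention time came from adduct peaks that were computationally picked and individually inspected by hand.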

RP-LC retention time: 726 s
SMILES: CC(NC(=O)c1cc(-c2ccc(Cl)cc2)cn1C)c1cccnc1 (centres undefined)

RP-LC retention time: 994 s
SMILES: O=C(Cn1cnc2c(sc3nc(-c4ccccc4)ccc32)c1=O)Nc1ccc(F)cc1

RP-LC retention time: 1060 s
SMILES: Cc1ccc(C)c(C(=O)N2CCc3nc(-c4ccc(F)cc4)ncc3C2)c1

RP-LC retention time: 649 s
SMILES: CCCN(Cc1ccccc1)Cc1cc(=O)n2cc(Cl)ccc2n1

RP-LC retention time: 605 s
SMILES: O=C(Cc1c(F)cccc1Cl)NCC(=O)N1CCN(c2ccccn2)CC1

RP-LC retention time: 716 s
SMILES: O=[N+]([O-])c1cccnc1Oc1cccnc1

RP-LC retention time: 562 s
SMILES: COc1cccc(CN2CCC3(CC2)CN(c2ncccn2)CC3CO)n1 (centres undefined)

RP-LC retention time: 653 s
SMILES: CCC1CCCCN1C(=O)c1cnc2nc(C)ccc2c1Nc1cccc(C(=O)OC)c1 (centres undefined)

RP-LC retention time: 711 s
SMILES: CN(C)c1ccccc1CN1CCCN(Cc2ccccc2N(C)C)C1c1ccncc1

RP-LC retention time: 622 s
SMILES: CCOc1ccc2nc(SCC(=O)Nc3nccs3)[nH]c2c1

RP-LC retention time: 801 s
SMILES: Cc1nnc(-c2ccc3ccn(CC(=O)N4CCN(c5ccccc5)CC4)c3c2)o1

RP-LC retention time: 865 s
SMILES: COc1ccc(CNC(=O)c2nnc(-c3ccc(S(=O)(=O)N(C)C)cc3)o2)c(OC)c1

RP-LC retention time: 668 s
SMILES: O=C1CC(c2ccccc2)N(Cc2ccc3c(c2)CCO3)CCCCCCN1 (centres undefined)

RP-LC retention time: 1020 s
SMILES: CCc1nn2c(CNC(=O)c3ccc(C(F)(F)F)cc3)c(-c3ccccc3)nc2s1

RP-LC retention time: 882 s
SMILES: CCC(NC(=O)c1cnc(-c2ccccc2)nc1-c1ccncc1)c1ccc(OC)cc1 (centres undefined)

RP-LC retention time: 1210 s
SMILES: Cc1ccc(-c2nnc(SCc3cccc(Cl)c3)o2)cc1

RP-LC retention time: 989 s
SMILES: Cn1cc(-c2nc(C(=O)NCc3ccccc3Cl)cs2)c2cccnc21

RP-LC retention time: 710 s
SMILES: CCS(=O)(=O)N(C)C1CCc2nn(Cc3ccccc3)c(=O)n2CC1 (centres undefined)

RP-LC retention time: 705 s
SMILES: CCn1cc(CCNC(=O)Nc2cc(C)cc(C)c2)c2cccnc21

RP-LC retention time: 1080 s
SMILES: O=C(Nc1ccc(Cl)cc1)c1oc2ccccc2c1NC(=O)C1CC1

RP-LC retention time: 678 s
SMILES: CCNc1cc(N2CCC(CCC(=O)NCc3cccc(Cl)c3)CC2)ncn1

RP-LC retention time: 672 s
SMILES: CC1=C(C(=O)Nc2ccccc2F)C(c2ccccc2Br)NC(=O)N1 (centres undefined)

RP-LC retention time: 679 s
SMILES: Cc1cc(Nc2nc3ccncc3n(C(C)C)c2=O)ccc1F

RP-LC retention time: 854 s
SMILES: CC(C)Cn1cc(CCNC(=O)c2ccccc2C(F)(F)F)c2cccnc21

RP-LC retention time: 621 s
SMILES: CC(=O)Nc1ccc(-n2c(C)nc3ccccc3c2=O)cc1C

RP-LC retention time: 1240 s
SMILES: COC(=O)c1ccc2c(=O)n(-c3ccccc3)c(N3CCCCCC3)nc2c1

RP-LC retention time: 639 s
SMILES: CCc1cc(=O)n(CC(=O)N(CC)Cc2ccccc2)c(N)n1

RP-LC retention time: 997 s
SMILES: Cc1cccc(-c2noc(C3CCCN3C(=O)c3ccc4c(c3)OCO4)n2)c1 (centres undefined)

RP-LC retention time: 715 s
SMILES: Cc1nc2c(NS(=O)(=O)c3ccc(F)cc3)cccn2n1

RP-LC retention time: 677 s
SMILES: Cn1c(-c2cccs2)nn(CCNC(=O)c2ccccc2SC(F)F)c1=O

RP-LC retention time: 810 s
SMILES: COc1ccc(OC)c(Nc2nc(NCC3CCCO3)nc(N)c2[N+](=O)[O-])c1 (centres undefined)

RP-LC retention time: 578 s
SMILES: CCc1ccc(Oc2cc(N3CCC(C(=O)NCCCOC)CC3)ncn2)cc1

RP-LC retention time: 723 s
SMILES: O=C(NCCC1=CCCCC1)C1CCCN(C(=O)c2cc(-c3ccccn3)n[nH]2)C1 (centres undefined)

RP-LC retention time: 712 s
SMILES: CCOc1ccc(C(C)NC(=O)C2CCCN(c3cnc4nccnc4c3)C2)cc1 (centres undefined)

RP-LC retention time: 909 s
SMILES: COCCCNC(=O)CCc1cn(Cc2ccccc2F)c2ccccc12

RP-LC retention time: 1030 s
SMILES: COc1ccc(N2CC(c3noc(-c4ccc(C)c(C)c4)n3)CC2=O)cc1 (centres undefined)

RP-LC retention time: 1130 s
SMILES: CC1=NS(=O)(=O)N(Cc2ccccc2)C=C1C(=O)OCc1noc(-c2cccc(Cl)c2)n1

RP-LC retention time: 1200 s
SMILES: CCn1c(C(=O)NCc2ccc(C)cc2)cc2sc(Cl)cc21

RP-LC retention time: 887 s
SMILES: Cc1ccc(S(=O)(=O)N(c2ccc(Br)cc2)C2C=CS(=O)(=O)C2)cc1 (centres undefined)

RP-LC retention time: 753 s
SMILES: Cc1c(Cl)cccc1NC(=O)Nc1cccc(-c2ccc(N3CCOCC3)nn2)c1

RP-LC retention time: 894 s
SMILES: COc1ccc(NC(=O)c2nnc(COCC(=O)NCCc3c[nH]c4ccc(Cl)cc34)s2)cc1

RP-LC retention time: 698 s
SMILES: CCOc1ccc(NC(=O)c2oc3ccccc3c2C)c2cccnc12

RP-LC retention time: 703 s
SMILES: CCC(C)C(NC(=O)c1cccc(N(C)C)c1)C(=O)Nc1nc2ccccc2[nH]1 (centres undefined)

RP-LC retention time: 777 s
SMILES: Cc1cc2c(cc1S(=O)(=O)N1CCCC1C(=O)Nc1ccccc1)OC(C)C(=O)N2 (centres undefined)

Continued, molecule first:

SMILES: NC(=O)C1CCc2sc(C(=O)N3CCCCCC3)cc2C1 (centres undefined)
RP-LC retention time: 663 s

SMILES: O=S(=O)(c1cccc(F)c1)N1CC(c2noc(C3CCCN3CC3CC3)n2)C1 (centres undefined)
RP-LC retention time: 676 s

SMILES: OCCN1CCN(CCCN2c3ccccc3C=Cc3ccccc32)CC1
RP-LC retention time: 692 s

SMILES: O=S(=O)(Cc1ccccc1F)N1CCOc2ccc(N3CCOCC3)cc2C1
RP-LC retention time: 861 s

SMILES: CCN1C(=O)C2(CCN(S(=O)(=O)Cc3ccccc3)CC2)c2ccccc21
RP-LC retention time: 976 s

SMILES: Cc1nc(C2(C)CCN(S(=O)(=O)c3c(C)c(C)cc(C)c3C)CC2)no1
RP-LC retention time: 1140 s

SMILES: COc1ccc2c(C)c(CCC(=O)N[C@H](CC(C)C)C(=O)O)c(=O)oc2c1C
RP-LC retention time: 781 s

SMILES: Cc1ccc(-c2cc(N3CCOCC3)c3cc(NC(=O)C4CC4)ccc3n2)cc1
RP-LC retention time: 701 s

SMILES: CC(C)CCNC(=O)C1CCN(c2nc3ccsc3c(=O)n2-c2ccccc2)CC1
RP-LC retention time: 838 s

SMILES: CSc1ccccc1CN1CCC(CNC(=O)C(=O)Nc2ccc3c(c2)OCO3)CC1
RP-LC retention time: 586 s

SMILES: CC1(C(=O)NCc2ccc(F)cc2)Cn2cnc(C(=O)NC3CCCCCC3)c2C(=O)N1C1CC1 (centres undefined)
RP-LC retention time: 823 s

SMILES: CCn1cnc2cc(-c3noc(-c4cc(OC)c(OC)c(OC)c4)n3)ccc21
RP-LC retention time: 732 s

SMILES: CCNC(=O)c1nc(C(=O)NC2CCCCC2)cs1
RP-LC retention time: 783 s

SMILES: O=C(NC1CC1)c1cc(N2CCCC2)nc2ccc(F)cc12
RP-LC retention time: 600 s

SMILES: CC(=O)c1ccc(NC(=O)N2C[C@@H]3C[C@H]2C[C@@H]3NC(=O)c2ccccc2)cc1
RP-LC retention time: 681 s

SMILES: CC(C)CCNC(=O)N1CCCC(C)(C(=O)NCc2ccccc2)C1 (centres undefined)
RP-LC retention time: 834 s

SMILES: CCN(CC)CCNC(=O)c1nc(-c2oc3c(C)cccc3c2C)no1
RP-LC retention time: 677 s

SMILES: Cc1cccc(N2CC(C(=O)N3CCCCCC3)CC2=O)c1 (centres undefined)
RP-LC retention time: 802 s

SMILES: COc1ccc(C2Nn3c(C)nnc3SC2C(=O)N2CCCCCC2)cc1Br (centres undefined)
RP-LC retention time: 794 s

SMILES: CC(C)n1c(CN2CCCC2)nc2cc(NC(=O)c3ccco3)ccc21
RP-LC retention time: 610 s

SMILES: Cc1ncoc1C(=O)N[C@@H]1CN(S(C)(=O)=O)C[C@H]1CN(C)C
RP-LC retention time: 516 s

SMILES: CC(C)OC(=O)CSc1nnc2c(S(=O)(=O)N3CCN(c4ccc(F)cc4)CC3)cccn12
RP-LC retention time: 917 s

SMILES: O=C(CN1C(=O)CSc2ccc(C(=O)N3CCCCC3)cc21)NCCCN1CCCCC1
RP-LC retention time: 610 s

SMILES: Cc1cc(N(C)C)n2nc(CN3CCN(c4ccccc4Cl)CC3)nc2n1
RP-LC retention time: 627 s

SMILES: COCCCNC(=O)C1CCCN(c2ccc(Sc3ccc(Br)cc3)nn2)C1 (centres undefined)
RP-LC retention time: 777 s

SMILES: CCOCCCNC(=O)Nc1ccc2nc3n(c(=O)c2c1)CCCC3
RP-LC retention time: 563 s

SMILES: CN(CC1CCOCC1)C(=O)Nc1cccc(Cl)c1
RP-LC retention time: 750 s

SMILES: CCn1c(SC)nnc1-c1nn(C)c2c1CN(C(=O)c1cccn1C)CC2
RP-LC retention time: 684 s

SMILES: COCC1CN(S(=O)(=O)c2ccc(F)c(C)c2)CC12CCNCC2 (centres undefined)
RP-LC retention time: 636 s

SMILES: O=C(N[C@H]1C[C@@H]2C[C@H]1CN2C(=O)Nc1ccc2c(c1)OCO2)c1cccs1
RP-LC retention time: 623 s

SMILES: O=C(C1=CN(c2ccc(Br)cc2)c2cc(Cl)ccc2S1(=O)=O)N1CCOCC1
RP-LC retention time: 924 s

SMILES: Cn1c(CNC(=O)C2CCC2)nc2c1CN(S(=O)(=O)c1cccs1)CC2
RP-LC retention time: 617 s

SMILES: CCCNC(=O)C1CCN(c2ccc(SCC(=O)Nc3cccc(C)c3C)nn2)CC1
RP-LC retention time: 642 s

SMILES: CCCCN1N=C(C(=O)N2CCC(C)CC2)S(=O)(=O)c2ccc(C)cc21
RP-LC retention time: 1060 s

SMILES: CN1CCN(S(=O)(=O)c2ccc3nn(Cc4c(F)cccc4Cl)c(=O)n3c2)CC1
RP-LC retention time: 642 s

SMILES: CN1CCCc2cc(C(CNC(=O)C(=O)Nc3ccc4c(c3)OCCO4)N3CCCCC3)ccc21 (centres undefined)
RP-LC retention time: 742 s

SMILES: CNC(=O)C1CCCN(c2nc3ncn(CC(=O)Nc4ccc5c(c4)OCO5)c(=O)c3s2)C1 (centres undefined)
RP-LC retention time: 1110 s

SMILES: CC(Oc1ccc(Cl)cc1)C(=O)NCC1CCOCC1 (centres undefined)
RP-LC retention time: 782 s

SMILES: COc1cccc(-c2c(C(=O)O)nnn2Cc2ccccc2F)c1
RP-LC retention time: 776 s

SMILES: Cc1ccc(CN(Cc2ccc(-c3ccccc3S(=O)(=O)NC#N)cc2)C(=O)c2ccccc2Cl)cc1
RP-LC retention time: 1060 s

SMILES: O=C(Cn1cnc2nc(N3CCC(C(=O)NC4CC4)CC3)sc2c1=O)Nc1cc(F)cc(F)c1
RP-LC retention time: 694 s

SMILES: CCCCN(C)C(=O)c1ccc2c(c1)N(CCC)C(=O)C1CCC(=O)N21 (centres undefined)
RP-LC retention time: 759 s

SMILES: CCN(CC)C(=O)c1ccc(-c2nc3cc(NS(=O)(=O)c4cc(F)ccc4F)ccc3n2C)cc1
RP-LC retention time: 704 s

SMILES: O=C(O)Cn1nnc(-c2cc(N3CCC(Oc4cc(F)ccc4Br)CC3)no2)n1
RP-LC retention time: 1000 s

SMILES: CCc1ccccc1NC(=O)C1CCCN(S(=O)(=O)c2cc(-c3noc(C)n3)cs2)C1 (centres undefined)
RP-LC retention time: 974 s
